Measured values taken from US20250297036A1, “METHOD FOR CO[…]-DERIVED PEPTIDE-NUCLEIC ACID HYBRID MOLECULES ON BASIS OF IN VITRO SELECTION” (priority 2022, published 2025).

Assays:
pseudotype SARS-CoV-2 = assay type: cell-based
SARS-CoV-2 RBD = SARS-CoV-2 RBD (Severe acute respiratory syndrome coronavirus 2, UniProt P0DTC2)
[1] = target: SARS-CoV-2 spike protein on GFP-reporting pseudotype SARS-CoV-2 (SARS-CoV-2), P0DTC2; test: cell-based or functional assay
[2] = target: SARS-CoV-2 RBD, wild type (SARS-CoV-2), P0DTC2

Molecule | infection rate with pseudotype SARS-CoV-2 (percentage of infected cells) (pseudotype SARS-CoV-2) [%] | competition with P05DHu and AM122 antibodies (SARS-CoV-2 RBD) | infection rate with pseudotype SARS-CoV-2 (GFP-expressing hACE2-293T cells) [1] [%] | % inhibition of RBD-hACE2 interaction [2] [%]
LGKGDFR [LGKGDFR peptide] | 12.6 | – | – | –
R7-02 (GGAAGAGATGGCGACACGCAATCGTGGGTTGGGGATATAATGGTAAGCTGATCCTGATGG; 5' hexynyl group, further chemistry not given here) | 1.9 | insignificant | – | –
LGKGDFRK (modifications not checked) [LGKGDFR peptide (hACE2-derived hotspot peptide, not conjugated to DNA)] | – | – | 12.6 | 11.7
